biological target: T1, human type 1 glycine transporter (GlyT1) (Homo sapiens, UniProt P48067); experiment: Glycine uptake inhibition experiment ([3H] glycine uptake in T98G cells expressing GlyT1); type: cell-based; conditions: not given
T1 construct: T98G cells (glioma cells) expressing human type 1 glycine transporter (GlyT1) were used; endogenous in cells; host or cells: T98G cells (human glioma cells)
T1 sequence (P48067 1-706): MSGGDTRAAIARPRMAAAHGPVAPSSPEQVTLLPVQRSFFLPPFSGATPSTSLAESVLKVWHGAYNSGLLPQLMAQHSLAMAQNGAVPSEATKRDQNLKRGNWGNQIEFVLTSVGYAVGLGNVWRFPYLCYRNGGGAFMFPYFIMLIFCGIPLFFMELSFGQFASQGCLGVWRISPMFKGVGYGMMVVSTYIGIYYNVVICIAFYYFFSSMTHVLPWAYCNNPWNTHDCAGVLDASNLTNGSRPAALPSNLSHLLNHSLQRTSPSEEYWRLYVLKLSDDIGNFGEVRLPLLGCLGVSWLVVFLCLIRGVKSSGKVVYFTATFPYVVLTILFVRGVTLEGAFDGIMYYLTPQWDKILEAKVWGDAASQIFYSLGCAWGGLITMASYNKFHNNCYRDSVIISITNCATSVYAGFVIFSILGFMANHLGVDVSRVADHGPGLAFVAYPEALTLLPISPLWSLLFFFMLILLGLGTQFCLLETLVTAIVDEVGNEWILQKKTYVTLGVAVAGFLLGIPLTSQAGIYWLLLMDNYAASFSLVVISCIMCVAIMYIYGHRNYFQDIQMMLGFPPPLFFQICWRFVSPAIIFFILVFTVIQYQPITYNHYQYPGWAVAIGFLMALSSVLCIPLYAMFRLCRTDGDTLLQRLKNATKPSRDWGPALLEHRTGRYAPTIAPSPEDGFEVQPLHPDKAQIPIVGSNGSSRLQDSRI
Protocol: Glycine Uptake Inhibition Experiment
A glycine uptake experiment was conducted in accordance with the method published in Neuron, 8, 927-935, 1992. In the experiment, T98G cells (glioma cells) expressing human type 1 glycine transporter (GlyT1) were used. The T98G cells were seeded in a 96-well plate at 2.0×10^4 cells/well and cultured overnight in a CO2 incubator. The test substance was dissolved in a 100% DMSO solution and then dissolved in a 10 mM HEPES buffer solution (pH 7.4) containing 150 mM sodium chloride, 1 mM calcium chloride, 5 mM potassium chloride, 1 mM magnesium chloride, 10 mM glucose and 0.2% bovine serum albumin. After removing the cell culture medium, the test substance was subjected to a 10-min pretreatment. Subsequently, the test substance and [^3H] glycine (final concentration: 250 nM) were added to the cells and reaction was performed at room temperature for 15 minutes. After the end of the reaction, the extracellular fluid was aspirated with a manifold to remove excess labeled glycine present outside the cells, and then the cells were lysed with a 0.5 M aqueous sodium hydroxide solution. The glycine content in the cells was determined by measuring the radioactivity in the cell lysate with a liquid scintillation counter. Glycine uptake in the presence of 10 μM ALX5407 was defined as non-specific uptake, and the value calculated by subtracting the amount of the non-specific uptake from the total uptake in the absence of 10 μM ALX5407 was defined as specific uptake. In addition, glycine uptake inhibitory activity (IC50 value) was calculated from an inhibition curve at the concentrations of each test substance ranging from 10^−9 to 10^−5 M. It should be noted that ALX5407 is an HCl salt of N-[(3R)-3-([1,1′-biphenyl]-4-yloxy)-3-(4-fluorophenyl)propyl]-N-methylglycine.

First: O=C1N(Cc2ccc(F)c(Br)n2)c2cccc(C(O)C(F)F)c2C1(F)F (single isomer, unassigned) [Compound 274, 1-[(6-bromo-5-fluoropyridin-2-yl)methyl]-4-(2,2-difluoro-1-hydroxyethyl)-3,3-difluoro-1,3-dihydro-2H-indol-2-one]
Second: O=C1N(Cc2cncc(Cl)n2)c2cccc(C(O)C(F)F)c2C1(F)F (single isomer, unassigned) [Compound 172, 1-[(6-chloropyrazin-2-yl)methyl]-4-(2,2-difluoro-1-hydroxyethyl)-3,3-difluoro-1,3-dihydro-2H-indol-2-one]
The IC50 of the first is 5.2-fold lower: 0.0046 µM for the first, 0.024 µM for the second.

Compared with `COc1cc(Cl)ncc1CN1C(=O)C(F)(F)c2c([C@H](C)O)cccc21` [Compound 231, 1-[(6-chloro-4-methoxypyridin-3-yl)methyl]-3,3-difluoro-4-[(1S)-1-hydroxyethyl]-1,3-dihydro-2H-indol-2-one], `COc1nc(CN2C(=O)C(F)(F)c3c([C@H](C)O)cccc32)ccc1Cl` [Compound 249, 1-[(5-chloro-6-methoxypyridin-2-yl)methyl]-3,3-difluoro-4-[(1S)-1-hydroxyethyl]-1,3-dihydro-2H-indol-2-one] is 2.4-fold lower in IC50: 0.14 µM for the first, 0.058 µM for the second.

Going from `O=C1N(Cc2cncc(Cl)c2)c2c(F)ccc(C(O)C(F)F)c2C1(F)F` (single isomer, unassigned) [Compound 253, 1-[(5-chloropyridin-3-yl)methyl]-4-(2,2-difluoro-1-hydroxyethyl)-3,3,7-trifluoro-1,3-dihydro-2H-indol-2-one] to `N#Cc1cncc(CN2C(=O)C(F)(F)c3c(C(O)C(F)F)cccc32)c1` (single isomer, unassigned) [Compound 164, 5-{[4-(2,2-difluoro-1-hydroxyethyl)-3,3-difluoro-2-oxo-2,3-dihydro-1H-indol-1-yl]methyl}pyridine-3-carbonitrile], the IC50 rises from 0.047 µM to 0.46 µM (9.8-fold). The first is the more potent here.

First: Cn1c(CN2C(=O)C(F)(F)c3c(C(O)C(F)F)cccc32)nc2cc(F)ccc2c1=O (single isomer, unassigned) [Compound 178, 2-{[4-(2,2-difluoro-1-hydroxyethyl)-3,3-difluoro-2-oxo-2,3-dihydro-1H-indol-1-yl]methyl}-7-fluoro-3-methylquinazolin-4(3H)-one]
Second: O=C1N(Cc2ccc(Cl)nc2)c2cccc(C(O)C(F)F)c2C1(F)F (single isomer, unassigned) [Compound 160, 1-[(6-chloropyridin-3-yl)methyl]-4-(2,2-difluoro-1-hydroxyethyl)-3,3-difluoro-1,3-dihydro-2H-indol-2-one]
The IC50 of the first is 8-fold lower: 0.044 µM for the first, 0.35 µM for the second. The first is the more potent here.

`C[C@H](O)c1cccc2c1C(F)(F)C(=O)N2Cc1ncccc1Cl` [Compound 206, 1-[(3-chloropyridin-2-yl)methyl]-3,3-difluoro-4-[(1S)-1-hydroxyethyl]-1,3-dihydro-2H-indol-2-one] and `C[C@H](O)c1cccc2c1C(F)(F)C(=O)N2Cc1ncc(Cl)cc1Cl` [Compound 225, 1-[(3,5-dichloropyridin-2-yl)methyl]-3,3-difluoro-4-[(1S)-1-hydroxyethyl]-1,3-dihydro-2H-indol-2-one] are within 1.5-fold of each other in IC50: 0.06 µM for the first, 0.057 µM for the second.

In the case of `C[C@H](O)c1cccc2c1C(F)(F)C(=O)N2Cc1ccc(C#N)nc1` [Compound 201, 5-({3,3-difluoro-4-[(1S)-1-hydroxyethyl]-2-oxo-2,3-dihydro-1-indol-1-yl}methyl)pyridine-2-carbonitrile], the IC50 is reported as 0.83 µM.

same assay, conditions: glycine uptake inhibition

Going from `O=C1N(Cc2cccc(Cl)n2)c2cccc(C3(O)CC3)c2C1(F)F` [Compound 26, 1-[(6-chloropyridin-2-yl)methyl]-3,3-difluoro-4-(1-hydroxycyclo-propyl)-1,3-dihydro-2H-indol-2-one] to `O=C1N(Cc2cccc(Cl)n2)c2cccc(CO)c2C1(F)F` [Compound 16, 1-[(6-chloropyridin-2-yl)methyl]-3,3-difluoro-4-(hydroxymethyl)-1,3-dihydro-2H-indol-2-one], the IC50 falls from 1.5 µM to 0.14 µM (11-fold). The second is the more potent here.

`C[C@H](O)c1cccc2c1C(F)(F)C(=O)N2Cc1cncc(C(F)(F)F)c1` [Compound 121] and `C[C@H](O)c1cccc2c1C(F)(F)C(=O)N2Cc1ccc(C(F)(F)F)cn1` [Compound 112, 3,3-difluoro-4-[(1S)-1-hydroxyethyl]-1-{[5-(trifluoromethyl)pyridin-2-yl]methyl}-1,3-dihydro-2H-indol-2-one] are within 1.5-fold of each other in IC50: 0.039 µM for the first, 0.029 µM for the second.

`O=C1N(Cc2cccc(Cl)n2)c2cccc(C(O)C(F)(F)F)c2C1(F)F` (stereo not drawn) [Compound 2, 1-[(6-chloropyridin-2-yl)methyl]-3,3-difluoro-4-(2,2,2-trifluoro-1-hydroxyethyl)-1,3-dihydro-2H-indol-2-one] and `O=C1N(Cc2cncc(Cl)n2)c2cccc([C@@H](O)C(F)(F)F)c2C1(F)F` [Compound 47, 1-[(6-chloropyrazin-2-yl)methyl]-3,3-difluoro-4-[(1R)-2,2,2-trifluoro-1-hydroxyethyl]-1,3-dihydro-2H-indol-2-one] are within 1.5-fold of each other in IC50: 0.051 µM for the first, 0.04 µM for the second.

`O=C1N(Cc2ccnc(F)c2)c2cccc(C(O)C(F)F)c2C1(F)F` (stereo not drawn) [Compound 150, 4-(2,2-difluoro-1-hydroxyethyl)-3,3-difluoro-1-[(2-fluoropyridin-4-yl)methyl]-1,3-dihydro-2H-indol-2-one] and `O=C1N(Cc2cncc(F)c2)c2cccc(C(O)C(F)F)c2C1(F)F` (single isomer, unassigned) [Compound 144, 4-(2,2-difluoro-1-hydroxyethyl)-3,3-difluoro-1-[(5-fluoropyridin-3-yl)methyl]-1,3-dihydro-2H-indol-2-one] are within 1.5-fold of each other in IC50: 0.31 µM for the first, 0.24 µM for the second.

Compared with `C[C@H](O)c1cccc2c1C(F)(F)C(=O)N2Cc1nc2cc(F)ccc2o1` [Compound 92, 3,3-difluoro-1-[(5-fluoro-1,3-benzoxazol-2-yl)methyl]-4-[(1S)-1-hydroxyethyl]-1,3-dihydro-2H-indol-2-one], `C[C@H](O)c1cccc2c1C(F)(F)C(=O)N2Cc1nc2ccccc2n(C)c1=O` [Compound 101, 3-({3,3-difluoro-4-[(1S)-1-hydroxyethyl]-2-oxo-2,3-dihydro-1H-indol-1-yl}methyl)-1-methylquinoxalin-2(1H)-one] is 1.7-fold lower in IC50: 0.069 µM for the first, 0.041 µM for the second.

Compared with `O=C1N(Cc2cncc(-n3nccn3)c2)c2cccc([C@@H](O)C(F)(F)F)c2C1(F)F` [Compound 134, 3,3-difluoro-1-{[5-(2H-1,2,3-triazol-2-yl)pyridin-3-yl]methyl}-4-[(1R)-2,2,2-trifluoro-1-hydroxyethyl]-1,3-dihydro-2H-indol-2-one], `C[C@@H](O)c1cccc2c1C(F)(F)C(=O)N2Cc1ccnc(C#N)c1` [Compound 38, 4-({3,3-difluoro-4-[(1R)-1-hydroxyethyl]-2-oxo-2,3-dihydro-1H-indol-1-yl}methyl)pyridine-2-carbonitrile] is 80-fold higher in IC50: 0.066 µM for the first, 5.3 µM for the second.

Compared with `C[C@H](O)c1cccc2c1C(F)(F)C(=O)N2Cc1nc2ncccc2c(=O)n1C` [Compound 108, 2-({3,3-difluoro-4-[(1S)-1-hydroxyethyl]-2-oxo-2,3-dihydro-1H-indol-1-yl}methyl)-3-methylpyrido[2,3-d]pyrimidin-4(3H)-one], `C[C@H](O)c1cccc2c1C(F)(F)C(=O)N2Cc1nc2cnccc2c(=O)n1C` [Compound 111, 2-({3,3-difluoro-4-[(1s)-1-hydroxyethyl]-2-oxo-2,3-dihydro-1H-indol-1-yl}methyl)-3-methylpyrido[3,4-d]pyrimidin-4(3H)-one] is 1.8-fold lower in IC50: 0.24 µM for the first, 0.13 µM for the second.

Compared with `O=C1N(Cc2cccc(Cl)n2)c2cccc(C(O)C(F)F)c2C1(F)F` (single isomer, unassigned) [Compound 126, 1-[(6-chloropyridin-2-yl)methyl]-4-(2,2-difluoro-1-hydroxyethyl)-3,3-difluoro-1,3-dihydro-2H-indol-2-one], `C[C@H](O)c1c(Cl)ccc2c1C(F)(F)C(=O)N2Cc1ccnc(C#N)c1` [Compound 107, 4-({5-chloro-3,3-difluoro-4-[(1S)-1-hydroxyethyl]-2-oxo-2,3-dihydro-1H-indol-1-yl}methyl)pyridine-2-carbonitrile] is 19-fold higher in IC50: 0.0079 µM for the first, 0.15 µM for the second.

Reference: patent US20160159814A1, “GLYCINE TRANSPORTER INHIBITOR” (TAISHO PHARMACEUTICAL CO., LTD., priority 2013, published 2016)
